Measured values taken from patent US9963434B2, “N-arylmethyl sulfonamide negative modulators of NR2A” (LUC THERAPEUTICS, priority 2013, dated 2018).
Where two headings read alike, the source gives them in different places.

Biological target: NR1/NR2A (Homo sapiens (Human), UniProt Q05586+Q12879)
Test: FDSS Ca2+ influx inhibition assay in HEK293 cells expressing NR1/NR2A
Assay type: cell-based
Conditions: 3 μM glutamate, 3 μM glycine, 1 mM Ca2+
Outline: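 Fluo-8-loaded HEK293 NR1/NR2A cells preincubated 10 min with compound at 10 μM final (0.1% DMSO) in Ca2+/Mg2+-free HBSS with 20 mM HEPES. Stimulated with 3 μM glutamate, 3 μM glycine, 1 mM Ca2+; FDSS recording for 3 min, end/baseline fluorescence ratio compared with MK801.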

[1] = inhibition relative to MK801, read-out: NR2A IC50

Sequence of NR1/NR2A (Q12879 23-1464, other chains not shown): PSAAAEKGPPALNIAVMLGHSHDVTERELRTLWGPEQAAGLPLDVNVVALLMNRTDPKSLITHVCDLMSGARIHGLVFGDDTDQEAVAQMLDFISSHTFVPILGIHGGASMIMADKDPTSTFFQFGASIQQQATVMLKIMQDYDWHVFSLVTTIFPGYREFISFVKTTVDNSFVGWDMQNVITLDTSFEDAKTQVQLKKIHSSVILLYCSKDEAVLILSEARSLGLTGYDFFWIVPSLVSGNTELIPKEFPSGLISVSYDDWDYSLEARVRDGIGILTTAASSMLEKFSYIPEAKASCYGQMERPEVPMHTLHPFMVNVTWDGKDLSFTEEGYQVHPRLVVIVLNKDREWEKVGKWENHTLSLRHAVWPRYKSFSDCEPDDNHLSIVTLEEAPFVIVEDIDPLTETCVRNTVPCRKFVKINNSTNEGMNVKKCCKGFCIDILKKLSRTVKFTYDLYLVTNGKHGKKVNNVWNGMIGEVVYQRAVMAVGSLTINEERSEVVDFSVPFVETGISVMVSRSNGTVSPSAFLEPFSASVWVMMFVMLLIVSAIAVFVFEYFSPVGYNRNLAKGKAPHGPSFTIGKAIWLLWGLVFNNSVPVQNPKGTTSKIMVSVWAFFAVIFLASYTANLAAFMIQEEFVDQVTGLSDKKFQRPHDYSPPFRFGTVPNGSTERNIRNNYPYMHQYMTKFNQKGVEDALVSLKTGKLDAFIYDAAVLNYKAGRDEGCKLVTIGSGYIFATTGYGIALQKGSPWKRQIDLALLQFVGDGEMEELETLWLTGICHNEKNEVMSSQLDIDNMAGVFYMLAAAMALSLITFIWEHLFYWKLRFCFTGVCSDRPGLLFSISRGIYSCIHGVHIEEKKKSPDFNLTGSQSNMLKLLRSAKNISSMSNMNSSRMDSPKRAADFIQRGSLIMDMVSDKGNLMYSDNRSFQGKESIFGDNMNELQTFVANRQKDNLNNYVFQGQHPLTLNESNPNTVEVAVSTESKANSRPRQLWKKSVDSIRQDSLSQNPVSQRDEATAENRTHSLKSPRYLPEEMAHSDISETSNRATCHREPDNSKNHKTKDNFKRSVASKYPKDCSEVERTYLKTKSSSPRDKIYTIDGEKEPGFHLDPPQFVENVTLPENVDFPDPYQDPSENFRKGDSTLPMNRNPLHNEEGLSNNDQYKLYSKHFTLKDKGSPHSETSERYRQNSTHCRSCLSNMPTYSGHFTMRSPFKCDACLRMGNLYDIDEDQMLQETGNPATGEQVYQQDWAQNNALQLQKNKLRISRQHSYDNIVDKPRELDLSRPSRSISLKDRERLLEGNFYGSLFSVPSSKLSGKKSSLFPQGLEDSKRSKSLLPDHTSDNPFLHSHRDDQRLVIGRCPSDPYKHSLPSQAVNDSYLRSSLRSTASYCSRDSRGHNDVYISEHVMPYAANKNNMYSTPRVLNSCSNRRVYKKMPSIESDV

| Structure (SMILES) | IC50 [1] [µM] | IC50 (read-out: Binned Activity) [µM] |
| --- | --- | --- |
| O=C(NCc1cncnc1)c1ccc(CNS(=O)(=O)c2ccc(F)c(Cl)c2)nc1 [6-(3-chloro-4-fluorobenzenesulfon-amidomethyl)-N-(pyrimidin-5-ylmethyl)pyridine-3-carboxamide] | 10 | > 10 |
| O=C(NCc1cccs1)c1ccc(CNS(=O)(=O)c2ccc(F)c(Cl)c2)nn1 [6-(3-chloro-4-fluorobenzenesulfon-amidomethyl)-N-(thiophen-2-ylmethyl)pyridazine-3-carboxamide] | 10 | > 10 |
| CC(NC(=O)c1ccc(CNS(=O)(=O)c2ccc(F)c(Cl)c2)nn1)c1ccco1 (stereo not shown) [6-(3-chloro-4-fluorobenzenesulfon-amidomethyl)-N-[1-(furan-2-yl)ethyl]pyridazine-3-carboxamide] | 10 | > 10 |
| CC(NC(=O)c1ccc(CNS(=O)(=O)c2ccc(F)c(Cl)c2)nn1)c1cccs1 (stereo not shown) [6-(3-chloro-4-fluorobenzenesulfon-amidomethyl)-N-[1-(thiophen-2-yl)ethyl]pyridazine-3-carboxamide] | 10 | > 10 |
| COc1ccc(CCNC(=O)c2ccc(CNS(=O)(=O)c3ccc(F)c(Cl)c3)nn2)cc1 [6-(3-chloro-4-fluorobenzenesulfon-amidomethyl)-N-[2-(4-methoxyphenyl)ethyl] pyridazine-3-carboxamide] | 10 | > 10 |
| CN(C)CCNC(=O)c1ccc(CNS(=O)(=O)c2ccc(F)c(Cl)c2)nc1 [6-(3-chloro-4-fluorobenzenesulfon-amidomethyl)-N-[2-(dimethylamino)ethyl] pyridine-3-carboxamide] | 10 | > 10 |
| CN(C)CCCNC(=O)c1ccc(CNS(=O)(=O)c2ccc(F)c(Cl)c2)nc1 [6-(3-chloro-4-fluorobenzenesulfon-amidomethyl)-N-[3-(dimethylamino)propyl] pyridine-3-carboxamide] | 10 | > 10 |
| CN(C)CCCCNC(=O)c1ccc(CNS(=O)(=O)c2ccc(F)c(Cl)c2)nc1 [6-(3-chloro-4-fluorobenzenesulfon-amidomethyl)-N-[4-(dimethylamino)butyl] pyridine-3-carboxamide] | 10 | > 10 |
| Cc1cc(CNC(=O)c2ccc(CNS(=O)(=O)c3ccc(F)c(Cl)c3)nc2)n(C)n1 [6-(3-chloro-4-fluorobenzenesulfon-amidomethyl)-N-[(1,3-dimethyl-1H-pyrazol-5-yl)methyl]pyridine-3-carboxamide] | 10 | > 10 |
| Cc1ccc(CNC(=O)c2ccc(CNS(=O)(=O)c3ccc(F)c(Cl)c3)nc2)n1C [6-(3-chloro-4-fluorobenzenesulfon-amidomethyl)-N-[(1,5-dimethyl-1H-pyrrol-2-yl)methyl]pyridine-3-carboxamide] | 10 | > 10 |
| Cn1ccnc1CNC(=O)c1ccc(CNS(=O)(=O)c2ccc(F)c(Cl)c2)nc1 [6-(3-chloro-4-fluorobenzenesulfon-amidomethyl)-N-[(1-methyl-1H-imidazol-2-yl)methyl]pyridine-3-carboxamide] | – | 0.1 to 1 |
| Cn1cnc(CNC(=O)c2ccc(CNS(=O)(=O)c3ccc(F)c(Cl)c3)nn2)c1 [6-(3-chloro-4-fluorobenzenesulfon-amidomethyl)-N-[(1-methyl-1H-imidazol-4-yl)methyl]pyridazine-3-carboxamide] | 10 | > 10 |
| Cn1cnc(CNC(=O)c2ccc(CNS(=O)(=O)c3ccc(F)c(Cl)c3)nc2)c1 [6-(3-chloro-4-fluorobenzenesulfon-amidomethyl)-N-[(1-methyl-1H-imidazol-4-yl)methyl]pyridine-3-carboxamide] | 10 | > 10 |
| Cn1nccc1CNC(=O)c1ccc(CNS(=O)(=O)c2ccc(F)c(Cl)c2)nc1 [6-(3-chloro-4-fluorobenzenesulfon-amidomethyl)-N-[(1-methyl-1H-pyrazol-5-yl)methyl]pyridine-3-carboxamide] | 10 | > 10 |
| Cn1cccc1CNC(=O)c1ccc(CNS(=O)(=O)c2ccc(F)c(Cl)c2)nc1 [6-(3-chloro-4-fluorobenzenesulfon-amidomethyl)-N-[(1-methyl-1H-pyrrol-2-yl)methyl]pyridine-3-carboxamide] | 10 | > 10 |
| C[C@@H](NC(=O)c1ccc(CNS(=O)(=O)c2ccc(F)c(Cl)c2)nn1)c1cncs1 [6-(3-chloro-4-fluorobenzenesulfon-amidomethyl)-N-[(1R)-1-(1,3-thiazol-5-yl)ethyl]pyridazine-3-carboxamide] | 10 | > 10 |
| C[C@@H](NC(=O)c1ccc(CNS(=O)(=O)c2ccc(F)c(Cl)c2)nc1)c1cncs1 [6-(3-chloro-4-fluorobenzenesulfon-amidomethyl)-N-[(1R)-1-(1,3-thiazol-5-yl)ethyl]pyridine-3-carboxamide] | 10 | – |

| Structure (SMILES) | IC50 [1] [µM] | IC50 (read-out: Binned Activity) [µM] |
| --- | --- | --- |
| COc1ccccc1CNC(=O)c1ccc(CNS(=O)(=O)c2ccc(F)c(Cl)c2)nc1 [6-(3-chloro-4-fluorobenzenesulfon-amidomethyl)-N-[(2-methoxyphenyl)methyl] pyridine-3-carboxamide] | 10 | > 10 |
| COc1cc(CNC(=O)c2ccc(CNS(=O)(=O)c3ccc(F)c(Cl)c3)nc2)ccn1 [6-(3-chloro-4-fluorobenzenesulfon-amidomethyl)-N-[(2-methoxypyridin-4-yl)methyl]pyridine-3-carboxamide] | 10 | > 10 |
| Cc1nc(CNC(=O)c2ccc(CNS(=O)(=O)c3ccc(F)c(Cl)c3)nn2)cs1 [6-(3-chloro-4-fluorobenzenesulfon-amidomethyl)-N-[(2-methyl-1,3-thiazol-4-yl)methyl]pyridazine-3-carboxamide] | 10 | > 10 |
| Cc1nc(CNC(=O)c2ccc(CNS(=O)(=O)c3ccc(F)c(Cl)c3)nc2)cs1 [6-(3-chloro-4-fluorobenzenesulfon-amidomethyl)-N-[(2-methyl-1,3-thiazol-4-yl)methyl]pyridine-3-carboxamide] | 10 | > 10 |
| Cc1ncc(CNC(=O)c2ccc(CNS(=O)(=O)c3ccc(F)c(Cl)c3)nn2)s1 [6-(3-chloro-4-fluorobenzenesulfon-amidomethyl)-N-[(2-methyl-1,3-thiazol-5-yl)methyl]pyridazine-3-carboxamide] | 10 | > 10 |
| COc1cccc(CNC(=O)c2ccc(CNS(=O)(=O)c3ccc(F)c(Cl)c3)nn2)c1 [6-(3-chloro-4-fluorobenzenesulfon-amidomethyl)-N-[(3-methoxyphenyl)methyl] pyridazine-3-carboxamide] | 10 | > 10 |
| COc1ccc(CNC(=O)c2ccc(CNS(=O)(=O)c3ccc(F)c(Cl)c3)nn2)cc1 [6-(3-chloro-4-fluorobenzenesulfon-amidomethyl)-N-[(4-methoxyphenyl)methyl] pyridazine-3-carboxamide] | 10 | > 10 |
| COc1ccc(CNC(=O)c2ccc(CNS(=O)(=O)c3ccc(F)c(Cl)c3)nc2)cc1 [6-(3-chloro-4-fluorobenzenesulfon-amidomethyl)-N-[(4-methoxyphenyl)methyl] pyridine-3-carboxamide] | 10 | > 10 |
| Cc1csc(CNC(=O)c2ccc(CNS(=O)(=O)c3ccc(F)c(Cl)c3)nc2)n1 [6-(3-chloro-4-fluorobenzenesulfon-amidomethyl)-N-[(4-methyl-1,3-thiazol-2-yl)methyl]pyridine-3-carboxamide] | 10 | > 10 |
| Cc1ncsc1CNC(=O)c1ccc(CNS(=O)(=O)c2ccc(F)c(Cl)c2)nn1 [6-(3-chloro-4-fluorobenzenesulfon-amidomethyl)-N-[(4-methyl-1,3-thiazol-5-yl)methyl]pyridazine-3-carboxamide] | 10 | > 10 |
| Cc1ncsc1CNC(=O)c1ccc(CNS(=O)(=O)c2ccc(F)c(Cl)c2)nc1 [6-(3-chloro-4-fluorobenzenesulfon-amidomethyl)-N-[(4-methyl-1,3-thiazol-5-yl)methyl]pyridine-3-carboxamide] | 10 | > 10 |
| Cc1ccncc1CNC(=O)c1ccc(CNS(=O)(=O)c2ccc(F)c(Cl)c2)nn1 [6-(3-chloro-4-fluorobenzenesulfon-amidomethyl)-N-[(4-methylpyridin-3-yl)methyl]pyridazine-3-carboxamide] | 10 | > 10 |
| Cc1ccncc1CNC(=O)c1ccc(CNS(=O)(=O)c2ccc(F)c(Cl)c2)nc1 [6-(3-chloro-4-fluorobenzenesulfon-amidomethyl)-N-[(4-methylpyridin-3-yl)methyl]pyridine-3-carboxamide] | – | 1 to 10 |
| Cc1nnc(CNC(=O)c2ccc(CNS(=O)(=O)c3ccc(F)c(Cl)c3)nc2)o1 [6-(3-chloro-4-fluorobenzenesulfon-amidomethyl)-N-[(5-methyl-1,3,4-oxadiazol-2-yl)methyl]pyridine-3-carboxamide] | 10 | > 10 |
| Cc1nnc(CNC(=O)c2ccc(CNS(=O)(=O)c3ccc(F)c(Cl)c3)nc2)s1 [6-(3-chloro-4-fluorobenzenesulfon-amidomethyl)-N-[(5-methyl-1,3,4-thiadiazol-2-yl)methyl]pyridine-3-carboxamide] | 10 | > 10 |
| Cc1cnc(CNC(=O)c2ccc(CNS(=O)(=O)c3ccc(F)c(Cl)c3)nn2)cn1 [6-(3-chloro-4-fluorobenzenesulfon-amidomethyl)-N-[(5-methylpyrazin-2-yl)methyl]pyridazine-3-carboxamide] | 10 | > 10 |
| Cc1cnc(CNC(=O)c2ccc(CNS(=O)(=O)c3ccc(F)c(Cl)c3)nc2)cn1 [6-(3-chloro-4-fluorobenzenesulfon-amidomethyl)-N-[(5-methylpyrazin-2-yl)methyl]pyridine-3-carboxamide] | – | 0.1 to 1 |
